Reference: patent US6737383B1, “Herbicidal oxadiazolidines” (priority 1999, dated 2004)

Columns and labels:
bedstraw = assay: Test B pre/postemergence bedstraw; assay type: in vivo, Galium aparine; details: Postemergence, Rate 125 g/ha; scale 0 to 10, 0 is no effect, 10 is complete control
Outline: (§1)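 Response is a visual 0-to-10 score relative to untreated plants, where 0 means no effect and 10 means complete control, taken twelve to sixteen days after application. Treatments went onto soil at planting and onto foliage of 1- to 4-leaf plants, using a surfactant-containing non-phytotoxic solvent.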

cocklebur = assay: Test B pre/postemergence cocklebur; assay type: in vivo, Xanthium strumarium
Outline: as §1

giant foxtail = assay: Test B pre/postemergence giant foxtail; assay type: in vivo, Setaria faberii
Outline: as §1

smallflower flatsedge = assay: Test B flood test smallflower flatsedge; assay type: in vivo, Cyperus difformis
Outline: (§2)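 Read-out is a visual response score from 0 (no effect) to 10 (complete control), assigned by comparison with untreated controls. Treatment was applied at the 2-leaf stage, and plants stayed in the greenhouse for twelve to sixteen days before scoring.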

soybean = assay: Test B pre/postemergence soybean; assay type: in vivo, Glycine max
Outline: as §1

rape = assay: Test B pre/postemergence rape; assay type: in vivo, Brassica napus
Outline: as §1

wild oat = assay: Test B pre/postemergence wild oat; assay type: in vivo, Avena fatua
Outline: as §1

bamyardgrass = assay: Test B flood test barnyardgrass; assay type: in vivo, Echinochloa crus-galli
Outline: as §2

blackgrass = assay: Test B pre/postemergence blackgrass; assay type: in vivo, Alopecurus myosuroides
Outline: as §1

pigweed = assay: Test B pre/postemergence pigweed; assay type: in vivo, Amaranthus retroflexus
Outline: as §1

velvetleaf = assay: Test B pre/postemergence velvetleaf; assay type: in vivo, Abutilon theophrasti
Outline: as §1

purple nutsedge = assay: Test B pre/postemergence purple nutsedge; assay type: in vivo, Cyperus rotundus
Outline: as §1

surinam grass = assay: Test B pre/postemergence surinam grass; assay type: in vivo, Brachiaria decumbens
Outline: as §1

corn = assay: Test B pre/postemergence corn; assay type: in vivo, Zea mays
Outline: as §1

wheat = assay: Test B pre/postemergence wheat; assay type: in vivo, Triticum aestivum
Outline: as §1

rice = assay: Test B flood test rice; assay type: in vivo, Oryza sativa
Outline: as §2

crabgrass = assay: Test B pre/postemergence crabgrass; assay type: in vivo, Digitaria sanguinalis
Outline: as §1

duck salad = assay: Test B flood test duck salad; assay type: in vivo, Heteranthera limosa
Outline: as §2

sugar beet = assay: Test B pre/postemergence sugar beet; assay type: in vivo, Beta vulgaris
Outline: as §1

morningglory = assay: Test B pre/postemergence morningglory; assay type: in vivo, Ipomoea hederacea
Outline: as §1

[1] = Postemergence, Rate 125 g/ha, scale 0 to 10, 0 is no effect, 10 is complete control
[2] = Postemergence, Rate 250 g/ha, scale 0 to 10
[3] = Postemergence, Rate 500 g/ha, scale 0 to 10, 0 is no effect, 10 is complete control
[4] = Preemergence, Rate 125 g/ha, scale 0 to 10, 0 is no effect, 10 is complete control
[5] = Preemergence, Rate 250 g/ha, scale 0 to 10, 0 is no effect, 10 is complete control
[6] = Rate 62 g/ha, Postemergence, scale 0 to 10 (0 no effect, 10 complete control)
[7] = Preemergence, Rate 62 g/ha, scale of 0 to 10 where 0 is no effect and 10 is complete control
[8] = Preemergence, Rate 500 g/ha, scale 0 to 10, 0 is no effect, 10 is complete control
[9] = Rate 62 g/ha, flood test species, Pre-emergence, visual evaluation after twelve to sixteen days
[10] = Rate 125 g/ha, under heading Pre-emergence, flood test species, visual evaluation after twelve to sixteen days
[11] = Rate 250 g/ha, Pre-emergence (flood test species), scale 0 to 10, 0 is no effect, 10 is complete control
[12] = Rate 500 g/ha, Pre-emergence section of Table B, 0 to 10 scale (0 no effect, 10 complete control)

CC(C)N(C(=O)n1oc(=O)n(CC(=O)C2CC2)c1=O)c1ccc(F)cc1F [Compound 490]
1: Rape plant response rating (rape; [4]) | Plant response rating, Velvetleaf (velvetleaf; [3])
4: Soybean plant response rating (soybean; [8]) | Soybean plant response rating (soybean; [6]) | Blackgrass plant response rating (blackgrass; [1]) | Velvetleaf plant response rating (velvetleaf; [8]) | B. signalgrass plant response rating (surinam grass; [1]) | B. signalgrass plant response rating (surinam grass; Postemergence, Rate 250 g/ha, scale 0 to 10, 0 no effect, 10 complete control) | Wheat plant response rating (wheat; [8])
2: Giant foxtail plant response rating (giant foxtail; [6]) | Blackgrass plant response rating (blackgrass; [6]) | Plant response rating, Redroot pigweed (pigweed; [3]) | B. signalgrass plant response rating (surinam grass; [6]) | Morningglory plant response rating (morningglory; [6])
10: Giant foxtail plant response rating (giant foxtail; [8]) | Crabgrass plant response rating (crabgrass; [8])
8: Giant foxtail plant response rating (giant foxtail; [1]) | Plant response rating, Giant foxtail (giant foxtail; [3]) | Rape plant response rating (rape; [8]) | Wild oats plant response rating (wild oat; [8]) | Blackgrass plant response rating (blackgrass; [4]) | Redroot pigweed plant response rating (pigweed; [8]) | B. signalgrass plant response rating (surinam grass; [8]) | Plant response rating, Crabgrass (crabgrass; [7])
5: Soybean plant response rating (soybean; [1]) | Wild oats plant response rating (wild oat; [1]) | Wild oats plant response rating (wild oat; [6]) | Plant response rating, Blackgrass (blackgrass; [3]) | Plant response rating, Redroot pigweed (pigweed; [7]) | B. signalgrass plant response rating (surinam grass; [4]) | Corn plant response rating (corn; [8]) | Sugarbeets plant response rating (sugar beet; [8])
7: Plant response rating, Wild oats (wild oat; [3]) | Wild oats plant response rating (wild oat; [4]) | Plant response rating, Blackgrass (blackgrass; [7]) | Redroot pigweed plant response rating (pigweed; [4]) | Plant response rating, B. signalgrass (surinam grass; [3]) | Plant response rating, Crabgrass (crabgrass; [3])
9: Plant response rating, Giant foxtail (giant foxtail; [7]) | Giant foxtail plant response rating (giant foxtail; [4]) | Blackgrass plant response rating (blackgrass; [5]) | Blackgrass plant response rating (blackgrass; [8]) | Crabgrass plant response rating (crabgrass; [4])
6: Plant response rating, Soybean (soybean; [3]) | Plant response rating, Wild oats (wild oat; [7]) | B. signalgrass plant response rating (surinam grass; [5]) | Crabgrass plant response rating (crabgrass; [1]) | Crabgrass plant response rating (crabgrass; [2])
0: Cocklebur plant response rating (cocklebur; [1]) | Cocklebur plant response rating (cocklebur; [2]) | Plant response rating, Cocklebur (cocklebur; [3]) | Cocklebur plant response rating (cocklebur; [4]) | Cocklebur plant response rating (cocklebur; [5]) | Cocklebur plant response rating (cocklebur; [6]) | Plant response rating, S. Flatsedge (0 to 10 scale, 0 is no effect, 10 is complete control) (smallflower flatsedge; [9]) | S. Flatsedge plant response rating (0 to 10 scale, 0 is no effect, 10 is complete control) (smallflower flatsedge; [10]) | S. Flatsedge plant response rating (smallflower flatsedge; [11]) | S. Flatsedge plant response rating (smallflower flatsedge; [12]) | Plant response rating, Soybean (soybean; [7]) | Soybean plant response rating (soybean; [4]) | Rape plant response rating (rape; [1]) | Plant response rating, Rape (rape; [3]) | Plant response rating, Rape (rape; [7]) | Rape plant response rating (rape; [6]) | Plant response rating, Barnyardgrass (0 to 10 scale, 0 is no effect, 10 is complete control) (bamyardgrass; [9]) | Barnyardgrass plant response rating (0 to 10 scale, 0 is no effect, 10 is complete control) (bamyardgrass; [10]) | Barnyardgrass plant response rating (bamyardgrass; [11]) | Barnyardgrass plant response rating (bamyardgrass; [12]) | Redroot pigweed plant response rating (pigweed; [1]) | Redroot pigweed plant response rating (pigweed; [6]) | Velvetleaf plant response rating (velvetleaf; [1]) | Plant response rating, Velvetleaf (velvetleaf; [7]) | Velvetleaf plant response rating (velvetleaf; [4]) | Velvetleaf plant response rating (velvetleaf; [6]) | Nutsedge plant response rating (purple nutsedge; [1]) | Plant response rating, Nutsedge (purple nutsedge; [3]) | Plant response rating, Nutsedge (purple nutsedge; [7]) | Nutsedge plant response rating (purple nutsedge; [4]) | Nutsedge plant response rating (purple nutsedge; [8]) | Nutsedge plant response rating (purple nutsedge; [6]) | Corn plant response rating (corn; [1]) | Corn plant response rating (corn; [2]) | Plant response rating, Corn (corn; [3]) | Plant response rating, Corn (corn; [7]) | Corn plant response rating (corn; [4]) | Corn plant response rating (corn; [6]) | Wheat plant response rating (wheat; [1]) | Plant response rating, Wheat (wheat; [3]) | Plant response rating, Wheat (wheat; [7]) | Wheat plant response rating (wheat; [4]) | Wheat plant response rating (wheat; [6]) | Plant response rating, Rice (0 to 10 scale, 0 is no effect, 10 is complete control) (rice; [9]) | Rice plant response rating (0 to 10 scale, 0 is no effect, 10 is complete control) (rice; [10]) | Rice plant response rating (rice; [11]) | Rice plant response rating (rice; [12]) | Plant response rating, Ducksalad (0 to 10 scale, 0 is no effect, 10 is complete control) (duck salad; [9]) | Ducksalad plant response rating (0 to 10 scale, 0 is no effect, 10 is complete control) (duck salad; [10]) | Ducksalad plant response rating (duck salad; [11]) | Ducksalad plant response rating (duck salad; [12]) | Sugarbeets plant response rating (sugar beet; [1]) | Plant response rating, Sugarbeets (sugar beet; [3]) | Plant response rating, Sugarbeets (sugar beet; [7]) | Sugarbeets plant response rating (sugar beet; [4]) | Sugarbeets plant response rating (sugar beet; [6]) | Plant response rating, Morningglory (morningglory; [7]) | Morningglory plant response rating (morningglory; [4]) | Morningglory plant response rating (morningglory; [8])
3: Bedstraw plant response rating (bedstraw) | Plant response rating, B. signalgrass (surinam grass; [7]) | Crabgrass plant response rating (crabgrass; [6]) | Morningglory plant response rating (morningglory; [1]) | Plant response rating, Morningglory (morningglory; [3])
